From article PMC11947101, “A phase Ia study of the MEK1/2 inhibitor PD-0325901 with the c-MET inhibitor crizotinib in patients with advanced solid cancers” (BJC Reports, 2025)

Tests used:
[1] = system: pERK1/2 and pMEK1/2 levels in skin biopsies; assay: Pharmacodynamic markers in paired skin biopsies by Western blotting; type: in vivo, human; conditions: in particular at 8 mg B.D PD-0325901
Protocol: All patients consented to a fresh frozen punch skin biopsy during screening and on cycle 1 day 15 (±7 days). PD markers of MEK1/2 inhibition (pMEK1/2 and pERK1/2 levels) in skin biopsies were assessed by Western blotting, previously described [18, 30]. […] Western blot images were developed using the G:BOX Chemi XX6 gel doc system (Syngene, Cambridge, UK). Densitometry on Western blot images was performed using ImageJ software.

[2] = system: patients with advanced solid tumours; conditions: in vivo
Text: (§1) Patients could remain on combination treatment until disease progression or predefined unacceptable toxicity. At each dose level and before escalation to the next level, a safety study board comprising representatives from the study sponsor and collaborating investigators reviewed individual patient safety and DLTs. DLTs were defined as an almost certainly or probable drug-related adverse events to either drug (Supplementary Table S1), during the first cycle of treatment.
(§2) Safety assessments comprised of physical examination including vital signs, weight, ECOG PS assessment, documentation of adverse events (AEs) and concomitant medication, with regular monitoring of haematology and biochemistry. Ophthalmic examinations (including visual acuity, pressure, perimetry, slit lamp examination, fundoscopy, and optical coherence tomography), ECG and Echocardiography/MUGA were performed at baseline and at pre-defined time-points during the trial. […] At this stage, patients were not required to have measurable disease. Anti-tumour activity was assessed by radiological investigations according to revised RECIST, version 1.1, at baseline (within 28 days before day 1 of cycle 1), then every 2 cycles and at the end of treatment.
(§3) Safety and efficacy data were summarised using descriptive statistics. Evaluable patients for toxicity were those patients that received at least one dose of one or both drugs. Evaluable patients for MTD or dose escalation were those patients who completed cycle 1 or withdrew early for experiencing a DLT. Response analyses (i.e., RECIST 1.1) were performed on an intention-to-treat basis, and any patient who received any dose of study treatment was evaluable for response. Progression-free-survival (PFS) was defined as the time between receiving the first dose of study medication (cycle 1, day -7) to disease progression or death from any cause. Overall survival (OS) was defined as the time between cycle 1, day -7 to death from any cause.

[3] = system: patients with advanced malignancies; conditions: cited from earlier work
[4] = Plasma pharmacokinetics (HPLC-MS/MS) of crizotinib, PD-0325901 and PD-0315209 in patients; type: in vivo, human; conditions: for Decrease in pre-dose concentrations on Days 21 compared to Day -1: Cycle 1 and 2, PD-0325901 8 mg B.D dose only; for Tmax: plasma, po, combination treatment, 4 dose levels, read-out: Time of peak plasma concentrations after oral dosing
Protocol: PK trough samples (pre-dose and 2-h post dose) were obtained on day 21 of cycles 2, 4, 6, 8, 10 and 12. Plasma concentrations were determined using a validated high-performance liquid chromatography mass spectrometry (HPLC-MS/MS) assay following solid-phase extraction of the plasma sample.

pERK1/2 = system: pERK1/2; set-up: method as in PMID 20215549; conditions: doses ≥2 mg PD-0325901 B.D; cited from earlier work
[5] = system: patients with advanced solid tumours; assay: Phase Ia dose-escalation: safety, DLT and MTD of PD-0325901 with crizotinib
Text: as §1, §2, §3

cMET = conditions: cited from earlier work

Structure (SMILES) | pMEK1/2 levels in skin biopsies, post- vs pre-treatment [1] | Serious adverse events thought to be drug-related [2] | Maximum tolerated dose (MTD), single agent ([3]; continuously, subsequently revised due to late retinal vein occlusion) | Doses resulting in intolerable toxicity, single agent ([3]; irrespective of the schedule) | AUC at day 21 compared to day 1 (first dose), single agent ([3]; multiple B.D dosing) | Decrease in pre-dose concentrations on Days 21 compared to Day -1 [4] | Plasma concentrations relative to those required to inhibit MEK1/2 activity ([4]; all dose levels) | Tmax ([4]; human) | Suppression of pERK1/2 in melanoma patient samples (pERK1/2) | Maximum tolerable dose (MTD) of PD-0325901 in combination with crizotinib ([5]; days 1–21 of 28-day cycle, with crizotinib 200 mg B.D) | Pre-clinically predicted effective concentration to inhibit c-MET (cMET) | Steady state on multiple dosing ([4]; Cycle 1 Day 21 vs Cycle 1 Day 28) | Median trough plasma concentrations ([4]; all cohorts (data not shown)) | Increase in crizotinib Cmax, Cmin and AUC0-10h with B.D dosing (cohorts 2-4) compared with cohort 1 (O.D) ([4]; days 21 and 28, p < 0.05) | Effect of PD-0325901 dose escalation (cohort 2 to cohort 4) on PK parameters of crizotinib ([4]; human, in vivo) | Number of drug-related adverse events determined to be related to the named drug ([5]; all cohorts, combination treatment) | Patients requiring a dose reduction of the named drug due to DR-AEs ([5]; combination treatment, all cohorts) | Maximum tolerable dose (MTD) of crizotinib in combination with PD-0325901 ([5]; continuously (days 1–28), with PD-0325901 8 mg B.D)
O=C(NOC[C@H](O)CO)c1ccc(F)c(F)c1Nc1ccc(I)cc1F [PD-0325901] | significant accumulation | one | 15 mg twice daily (B.D) | > 15 mg twice a day (B.D) | slightly higher | 1.8–2.2 fold | reached levels consistent with those required to inhibit MEK1/2 activity at all dose levels | 1.02 to 2.27 h | ≥ 60% | 8 mg B.D | – | – | – | – | – | – | – | –
O=C(O)c1ccc(F)c(F)c1Nc1ccc(I)cc1F [PD-0315209] | – | – | – | – | – | 1.8–2.2 fold | – | – | – | – | – | – | – | – | – | – | – | –
C[C@@H](Oc1cc(-c2cnn(C3CCNCC3)c2)cnc1N)c1c(Cl)ccc(F)c1Cl [crizotinib] | – | – | – | – | – | – | – | 2.76 to 5.21 h | – | – | 62 ng/mL | reached steady state by day 21 | > 62 ng/mL | 1.6–2.6 fold | did not appear to affect | 124 | No patients | 200 mg B.D
